This is an account of results in ChEMBL document CHEMBL4840374, “Cytochalasin Derivatives from the Endozoic Curvularia verruculosa CS-129, a Fungus Isolated from the Deep-Sea Squat Lobster Shinkaia crosnieri Living in the Cold Seep Environment” (J Nat Prod, 2021).

The test system of assay [1] is HCT-116. In words: Cytotoxicity against human HCT-116 cells assessed as reduction in cell viability after 72 hrs by MTT assay. The class given is functional, cell-based.
The subject of assay [2] is Edwardsiella tarda. Kind of assay: Antibacterial activity against […] QDIO-10 assessed as reduction in microbial growth by microtiter plate reader assay. Format: functional.
In assay [3] the test system is MCF7. Kind of assay: Cytotoxicity against human MCF7 cells assessed as reduction in cell viability after 72 hrs by MTT assay. Format: functional, cell-based.
Assay [4] relates to HepG2. In words: Cytotoxicity against human HepG2 cells assessed as reduction in cell viability after 72 hrs by MTT assay. Format: functional, cell-based.
Assay [5] deals with Escherichia coli. Kind of assay: Antibacterial activity against Escherichia coli EMBLC-1 assessed as reduction in microbial growth by microtiter plate reader assay. The class given is functional.
Assay [6] relates to Vibrio parahaemolyticus. In words: Antibacterial activity against Vibrio parahaemolyticus QDIO-8 assessed as reduction in microbial growth by microtiter plate reader assay. The class given is functional.
The mark [7] stands for this setting: Homo sapiens, HCT-116, 72 h, read-out: IC50.
Where [8] appears, read: Homo sapiens, MCF7, 72 h, read-out: IC50.
Where [9] appears, read: Homo sapiens, HepG2, 72 h, read-out: IC50.

Regarding `C=C1[C@@H](C)[C@H]2[C@H](Cc3ccccc3)NC(=O)[C@]23OC(=O)/C=C/[C@H](O)[C@H](O)CC[C@@H](C)C/C=C/[C@H]3[C@@H]1O`, the half-maximal inhibitory concentration (IC50) in assay [1] (setting [7]) was 9.5 µM; in assay [3] (setting [8]), 6 µM; in assay [4] (setting [9]), 6.4 µM. For the same compound, the minimal inhibitory concentration (MIC) in assay [2] is 8 µg/mL.

Regarding `C[C@H]1C/C=C/[C@H]2[C@@H]3O[C@]3(C)[C@@H](C)[C@H]3[C@H](Cc4ccccc4)NC(=O)[C@]32OC(=O)/C=C/[C@H](O)CCC1`, the MIC in assay [2] was 8 µg/mL.

As to `C=C1[C@@H](C)[C@H]2[C@H](Cc3ccccc3)NC(=O)[C@]23OC(=O)/C=C/CCCC[C@@H](C)C/C=C/[C@H]3[C@@H]1O`, the half-inhibitory concentration (IC50) entry in assay [1] (hct-116), in assay [3] (mcf7) and in assay [4] (hepg2) was “Not Active” in each case.

In the case of `C=C1[C@@H](C)[C@H]2[C@H](Cc3ccccc3)NC(=O)[C@]23OC(=O)[C@@H](S[C@H]2CC(=O)CCC[C@@H](C)C/C=C/[C@H]4[C@H](O)C(=C)[C@@H](C)[C@H]5[C@H](Cc6ccccc6)NC(=O)[C@]54OC2=O)CC(=O)CCC[C@@H](C)C/C=C/[C@H]3[C@@H]1O`, in assay [5], the MIC was found to be 2 µg/mL.

For the compound `O=C(N[C@H](CO)[C@H](O)c1ccc([N+](=O)[O-])cc1)C(Cl)Cl` [CHLORAMPHENICOL], the figures for the MIC in assay [6] and in assay [2] were 2 µg/mL and 0.5 µg/mL, respectively.

As to `C=C1[C@@H](C)[C@H]2[C@H](Cc3ccccc3)NC(=O)[C@]23OC(=O)/C=C/[C@H](O)CCC[C@@H](C)C/C=C/[C@H]3[C@@H]1O` [CYTOCHALASIN B], the IC50 came out at 12 µM in assay [1] (setting [7]), 5.2 µM in assay [3] (setting [8]) and 9.5 µM in assay [4] (setting [9]). The minimal inhibitory concentration (MIC) in assay [6] is 4 µg/mL.

Regarding `C=C1[C@@H](C)[C@H]2[C@H](Cc3ccccc3)NC(=O)[C@]23C(=O)/C=C/[C@H](O)CCC[C@@H](C)C/C=C/[C@H]3[C@@H]1O` [DEOXAPHOMIN], the IC50 in assay [1] (setting [7]) came out at 7.6 µM; in assay [3] (setting [8]), 7 µM; in assay [4] (setting [9]) it was 7.1 µM.
